Measured values: patent US10266568B2, “Cyclic citrullinated peptide, rheumatoid arthritis diagnosis composition including the same, rheumatoid arthritis diagnosis method using the peptide or the composition, and method of screening diagnostic marker for rheumatoid arthritis” (KOREA INSTITUTE OF SCIENCE AND TECHNOLOGY, priority 2015, dated 2019)
Positions of bridges follow the written chain, without caps; N, C: chain ends. Non-standard residues stand in square brackets, D forms with d. No end group written: not given here. Cit = NC(=O)NCCC[C@H](N)C(=O)O; Ahx = NCCCCCC(=O)O

Test system: autoimmune antibodies (anti-CCP antibody) in serum samples
Test: Sandwich ELISA of patient serum samples on peptide-coated microplates (absorbance at 450 nm)
Format: binding, human
Settings: diluted 200 times; for Average (absorbance) OA: OA patient serum samples (15 subjects); for Average (absorbance) SLE: SLE patient serum samples (25 subjects); for Average (absorbance) Normal: normal control group serum samples (25 subjects); for Average (absorbance) RA: RA patient serum samples (30 subjects), peptide coated at about 10 μg/ml
Description: Sandwich enzyme linked immunosorbent assay (ELISA) using the peptides of Table 1 were performed on the samples from 4 test groups. Serum samples of RA patients (30 subjects), OA patients (15 subjects), SLE patients (25 subjects), and control group samples (25 normal subjects) were prepared.
Each of the prepared peptides of Table 1 was diluted with PBS to about 10 μg/ml, added by about 100 μl to a microplate, and then coated at about 4° C. overnight, followed by adding about 200 μl of BSA solution (10 mg/mL) to each well of the peptide coated microplate to block at room temperature for about 1 hour, and washing the microplate with a PBS including about 0.1% of Tween-20 three times to use the microplate it in this assay. The patient samples and normal control group sample were diluted by 200 times and added triplet by about 100 μl to the wells of the peptide-coated microplate. After being cultured at room temperature for about 1 hour, the resulting microplate was washed three times in the same manner as the above-described washing. To detect autoimmune antibodies in the samples, 100 μl of an anti-human IgG antibody solution ([…]) was added to each cell of the microplate and incubated at room temperature for about 1 hour, followed by washing three times in the same manner as the above-described washing. After 100 μl of a TMB substrate solution was added thereto and reacted at room temperature for about 30 minutes, finally 100 μl of a 2M sulfuric acid solution was added as a stop solution to terminate the reaction, followed by absorbance measurement at a wavelength of about 450 nm using a microplate reader.
Autoimmune antibody levels in the blood samples of normal patients and various types of arthritis patients were analyzed by enzyme linked immunosorbent assay (ELISA) using the peptides of SEQ ID NOS.
Autoimmune antibody levels in the blood samples of normal patients and various arthritis patients were analyzed by ELISA using the peptides of SEQ ID NOS.

Substance	Average (absorbance) OA	Average (absorbance) SLE	Average (absorbance) Normal	Average (absorbance) RA
CCP12P: HCHQESTXGRSPGCG; CCP with 12th amino acid substituted by proline (HCHQEST[Cit]GRSPGCG; disulfide 2-14)	0.2847	0.3619	0.1250	–
CCP: cyclic citrullinated peptide HCHQESTXGRSRGCG, X citrulline (HCHQEST[Cit]GRSRGCG; disulfide 2-14) [reference compound]	0.2314	0.2347	0.0874	0.2522
ZZH17: ZZHSHQESTXGRSRGSG; aminocaproic acid (Z) added to N-terminal of HSH15 ([Ahx][Ahx]HSHQEST[Cit]GRSRGSG)	–	0.2738	0.1102	–
RF: rheumatoid factor peptide EGLHNHY (listed as Homo sapiens) [reference compound]	0.2791	0.3417	0.1484	0.2534
ZZH19: ZZHSHQESTXGRSRGSGZZ; aminocaproic acid (Z) added to N- and C-terminals of HSH15 ([Ahx][Ahx]HSHQEST[Cit]GRSRGSG[Ahx][Ahx])	–	–	0.1609	–
HSH15: HSHQESTXGRSRGSG; CCP with disulfide bond-forming cysteine substituted with serine, X citrulline (HSHQEST[Cit]GRSRGSG)	0.2277	0.2704	0.1067	0.1942
CCP10P: HCHQESTXGPSRGCG; CCP with 10th amino acid arginine substituted by proline (HCHQEST[Cit]GPSRGCG; disulfide 2-14)	–	–	0.0994	–
CCPPAP: HCHQESTXGPAPGCG; CCP with 10th, 11th, 12th amino acids substituted by proline, alanine, proline (HCHQEST[Cit]GPAPGCG; disulfide 2-14)	0.2591	0.3287	0.1140	–
CCP11A: HCHQESTXGRARGCG; CCP with 11th amino acid serine substituted by alanine (HCHQEST[Cit]GRARGCG; disulfide 2-14)	–	0.3321	0.1125	–
HSH17: HSHQESTXGRSRGSGZZ; aminocaproic acid (Z) added to C-terminal of HSH15 (HSHQEST[Cit]GRSRGSG[Ahx][Ahx])	–	–	0.1412	–
